Laboratory results from PubChem BioAssay (NCI).
Where “and” joins values, the source holds several entries; their conditions need not be identical. Equal entries are not always repeated.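 Cultured in 96-well plates, cells were exposed to test compound for 48 hours across five concentrations. At the GI50, growth is halved. Definition used: TGI = concentration required for complete inhibition of growth.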

How the values were obtained:
Test in all cases: DTP human tumour cell line panel, 48 h
A549 NSCLC = tested on: A549 NSCLC
BT-549 breast = tested on: BT-549 breast
HCT-15 colon = tested on: HCT-15 colon
HT29 colon = tested on: HT29 colon
LOX IMVI melanoma = tested on: LOX IMVI melanoma
SF-295 CNS = tested on: SF-295 CNS
SNB-19 CNS = tested on: SNB-19 CNS
UACC-257 melanoma = tested on: UACC-257 melanoma
SNB-75 CNS = tested on: SNB-75 CNS

Row | Structure (SMILES) | TGI (A549 NSCLC) | TGI (BT-549 breast) [µM] | TGI (HCT-15 colon) | TGI (HT29 colon) | TGI (LOX IMVI melanoma) | TGI (SF-295 CNS) | TGI (SNB-19 CNS) | TGI (UACC-257 melanoma) | TGI (SNB-75 CNS) | GI50 (A549 NSCLC) [µM] | GI50 (BT-549 breast) [µM] | GI50 (HCT-15 colon) [µM] | GI50 (HT29 colon) [µM] | GI50 (SNB-19 CNS) [µM] | GI50 (SNB-75 CNS) [µM] | GI50 (UACC-257 melanoma) [µM] | GI50 (LOX IMVI melanoma) [µM] | GI50 (SF-295 CNS) [µM]
1 | COc1ccccc1C1=C2C(=O)N(C)C(c3ccccc3OC)=C2C(=O)N1C | > 100 µM | > 100 | > 100 µM | > 100 µM | > 100 µM | > 100 µM | 75.4 µM | > 100 µM | – | – | – | – | – | – | – | – | – | –
2 | N/N=C(\CC1OC(=O)c2ccccc21)c1ccco1 (stereo unspecified) | > 100 µM | – | > 100 µM | > 100 µM | > 100 µM | > 100 µM | > 100 µM | > 100 µM | > 100 µM | – | – | – | – | – | – | – | – | –
3 | COc1ccc2nc(-c3ccccc3)cc(Nc3ccc(C(C)=O)cc3)c2c1 | 60.3 µM | 37.5 | 6.11 µM | > 100 µM | – | 1.57 µM | 26.6 µM | 32.6 µM | 42.5 µM | 11.9 | 15.3 | 2.25 | 9.89 | 5.74 | 17.9 | 12 | – | –
4 | O=[N+]([O-])c1ccc(Sc2c3ccccc3nc3ccccc23)cc1 | > 100 µM | – | > 100 µM | > 100 µM | > 100 µM | > 100 µM | > 100 µM | > 100 µM | > 100 µM | – | – | – | – | – | – | – | – | –
5 | Cc1cccc(C)c1NC(=O)CCCC(=O)CC(=O)/C=C/c1ccccc1 | > 100 µM | – | > 100 µM | > 100 µM | > 100 µM | – | > 100 µM | > 100 µM | > 100 µM | – | – | – | – | – | – | – | – | –
6 | CN(C)CC(/C(Cc1ccccc1)=N\NC(=O)c1ccncc1)c1ccccc1 (stereo unspecified) | > 100 µM | – | – | > 100 µM | > 100 µM | 68.3 µM | > 100 µM | > 100 µM | 92.8 µM | – | – | – | – | – | – | – | – | –
7 | CCOC(=O)CCCn1c(SC)nc2cc(-c3ccco3)[nH]c2c1=O | > 100 µM | – | > 100 µM | > 100 µM | > 100 µM | 54.8 µM | 65.6 µM | > 100 µM | 17.7 µM | > 100 | – | > 100 | > 100 | 19.8 | 4.55 | > 100 | 57.8 | 16.7
8 | COC(=O)NC/C=C\c1nc(CC/C=C\C(=O)OC2CC3CC(=O)O[C@H](/C=C/CC(C)C)C[C@H]4CCC(C)C(C[C@H](OC)CC(C2)O3)O4)co1 (stereo partly specified) | > 100 µM | 2.95 | – | > 100 µM | – | 61.5 µM | > 100 µM | > 100 µM | > 100 µM | < 0.01 | 0.016 | – | 0.742 | 23 | 32.5 | > 100 | – | < 0.01
9 | CC1Cc2c(N)nc(NN)nc2NC1=O (stereo unspecified) | > 100 µM | – | > 100 µM | > 100 µM | > 100 µM | > 100 µM | > 100 µM | > 100 µM | > 100 µM | – | – | – | – | – | – | – | – | –
10 | O=C1CCCCCCCCCCC(=O)C2CCOCCOCCOCCC1Cc1cccc(n1)C2 | > 100 µM | – | > 100 µM | > 100 µM | > 100 µM | > 100 µM | > 100 µM | > 100 µM | > 100 µM | – | – | – | – | – | – | – | – | –
11 | CC(=O)NC1=C(Nc2ccc(C)cc2)C(=O)c2ccccc2C1=O | 29.3 µM | – | 39.3 µM | 31.9 µM | 21.3 µM | 54.7 µM | > 75 µM | 51.5 µM | 22.6 µM | – | – | – | – | – | – | – | – | –
12 | CC(=O)OCC1OC(OC2CC3C(C)(C)C(OC(C)=O)CC[C@]3(C)C3CCC45CC4(CC[C@H]5C(C)CC(O)[C@@H](O)C(C)(C)O)[C@]23C)C(O)C(O)C1O (stereo partly specified) | 14.2 µM and 35 µM | – | 14 µM and 24.3 µM | 14.3 µM and 10.6 µM | 13 µM and 11.2 µM | 14.2 µM and 14.3 µM | 13.2 µM and 14.8 µM | 13.8 µM and 20.7 µM | 12 µM and 16.8 µM | 19.9 | – | 12 | 3.37 | 4.35 | 5.04 | – | 3.34 | 4.41
13 | CCOc1cc2c(cnc3c4cc(OC)c(OC)cc4ccc23)cc1OC | > 100 µM | – | > 100 µM | > 100 µM | – | > 100 µM | > 100 µM | > 100 µM | > 100 µM | – | – | – | – | – | – | – | – | –
14 | CCOC(=O)Cc1csc(/N=C2\NC(=O)/C(=C3\C(=O)N(C)c4ccccc43)S2)n1 | > 100 µM | > 100 | > 100 µM | > 100 µM | > 100 µM | 87 µM | > 100 µM | > 100 µM | – | 36.5 | 48.4 | 39.7 | 44.5 | 52.5 | – | 79.1 | 34.6 | 29.8
15 | CC(=O)[CH-]C(=O)c1ccccc1.CC(=O)[CH-]C(=O)c1ccccc1.CC(=O)[CH-]C(=O)c1ccccc1.[Tl+3] | > 100 µM | – | > 100 µM | > 100 µM | > 100 µM | > 100 µM | > 100 µM | 82.7 µM | > 100 µM | 42.1 | – | 41.7 | 57.1 | 95.2 | 48.1 | 26.3 | 42.7 | 48.7
